In data set [1] the test system is Cryptococcus neoformans. In words: Antifungal activity against Cryptococcus neoformans H99 assessed as decrease in cell viability by measuring metabolic activity incubated for 72 hrs by alamar blue staining based broth dilution method. The data set is classed as functional. A general note: The colour change of resazurin is a common sign of viable cells or microbes.

Data set [2] in a line: Inhibition of Cryptococcus neoformans farnesyltransferase assessed as inhibition of farnesylation of dansyl-GCVVM peptide using fluorescent peptide dansyl-GCVVM and 1uM farnesyl diphosphate as substrate by fluorescence assay.
Data set [3] has as its system Cryptococcus neoformans. Briefly: Uncompetitive type inhibition of Cryptococcus neoformans farnesyltransferase assessed as inhibition constant using FPP in presence of 10 mM phosphate and fluorescent peptide dansyl-GCVVM as substrate by steady-state kinetic analysis.
For data set [4], the system named is Cryptococcus neoformans. In words: Uncompetitive type inhibition of Cryptococcus neoformans farnesyltransferase assessed as inhibition constant using farnesyl diphosphate and fluorescent peptide dansyl-GCVVM as substrate by steady-state kinetic analysis.
Data set [5] is described as follows: Inhibition of rat farnesyltransferase assessed as inhibition of farnesylation of dansyl-GCVVM peptide using fluorescent peptide dansyl-GCVVM and 1uM farnesyl diphosphate as substrate by fluorescence assay.
Data set [6] relates to Schizosaccharomyces pombe. Briefly: Antifungal activity against Schizosaccharomyces pombe efflux-defective strain MJ-1682 assessed as inhibition of fungal growth by broth microdilution method. The data set is classed as functional. For orientation: In broth dilution the organism is exposed to a series of concentrations in liquid medium.
The subject of data set [7] is Cryptococcus neoformans. Briefly: Inhibition of biofilm formation in Cryptococcus neoformans H99 incubated for 3 days by alamar blue staining based microtiter plate reader assay. The data set is classed as functional. The following applies: H99, 72 h, time 3 day.
The nature of data set [8]: Cytotoxicity against mouse J774.A1 cells assessed as inhibition of cell viability measured at 24 hrs by AlamarBlue staining based cell viability assay. The data set is classed as toxicity. The following applies: read-out: MIC.
Data set [9] deals with Cryptococcus neoformans. In words: Fungicidal activity against Cryptococcus neoformans H99 assessed as reduction in colonies incubated for 48 hrs by disk diffusion method. The data set is classed as functional, organism-based. For orientation: Agar diffusion results depend on both activity and mobility in agar.

pIC50: −log10 of the molar value. ≈ marks a conversion by molar mass, not a printed value. Calls of active or inactive are those of the source. No cut-off for these calls is given here.

By pIC50 is commonly meant −log10 of the IC50, conventionally taken in molar units. For `CCCC[C@H]1CN(c2cccc(OC(F)(F)F)c2)C(=O)CN1Cc1cncn1Cc1ccc(Cl)cc1`, the MIC in the data set on Cryptococcus neoformans [1] came to 6 µM (≈ 3.13 µg/mL). Also, the pIC50 in data set [2] is 6.59.

As for `CCCC[C@H]1CN(c2cccc(OC(F)(F)F)c2)C(=O)CN1Cc1cncn1Cc1ccc(C#N)c(Oc2ccccc2)c1`, the MIC in the data set with Cryptococcus neoformans [1] worked out at 50 µM (≈ 30.2 µg/mL). Further, the pIC50 in data set [2] was 6.82.

Consider `CCCC[C@H]1CN(c2ccccc2)C(=O)CN1Cc1cncn1Cc1ccc(Br)cc1`, for which the MIC in the data set with Cryptococcus neoformans [1] worked out at 50 µM (≈ 24.1 µg/mL). The pIC50 in data set [2] was 6.04.

For `CCCC[C@H]1CN(c2cccc(OC(F)(F)F)c2)C(=O)CN1Cc1cncn1Cc1ccc(C#N)c(F)c1`, the values for the K in the data set with Cryptococcus neoformans [3] and in the data set on Cryptococcus neoformans [4] were 4.2 nM and 4.9 nM, respectively. In the data set with Cryptococcus neoformans [1], the MIC came to 50 µM (≈ 26.5 µg/mL). In data set [2], the pIC50 was 7.40.

With `CCCC[C@H]1CN(c2cccc(OC(F)(F)F)c2)C(=O)CN1Cc1cncn1Cc1ccc(C(F)(F)F)cc1`, the MIC in the data set with Cryptococcus neoformans [1] was 6 µM (≈ 3.33 µg/mL). The pIC50 in data set [2] is 6.55.

For `N#Cc1ccc(Cn2cncc2CN2CCN(c3cccc(Cl)c3)C(=O)C2)cc1` [L-778123 FREE BASE], the negative logarithm of the IC50 (pIC50) in data set [5] is 7.22. Besides, the MIC with Cryptococcus neoformans [1] was determined as 100 µM (≈ 40.6 µg/mL).

Consider `N#Cc1cc(Cn2cncc2CN2CCN(c3cccc(OC(F)(F)F)c3)C(=O)C2)ccc1Oc1ccccc1`, for which the MIC with Cryptococcus neoformans [1] is 50 µM (≈ 27.4 µg/mL). Also, in data set [2], the negative-log IC50 (pIC50) is 6.49.

On to `CCC[C@H]1CN(c2cccc(OC(F)(F)F)c2)C(=O)CN1Cc1cncn1Cc1ccc(Br)cc1`, for which, in the data set with Cryptococcus neoformans [1], the MIC is 6 µM (≈ 3.31 µg/mL). In addition, the pIC50 in data set [2] is 5.96.

On to `CCCC[C@H]1CN(c2cccc(Cl)c2)C(=O)CN1Cc1cncn1Cc1ccc(C#N)cc1`, for which the MIC in the data set with Cryptococcus neoformans [1] is 50 µM (≈ 23.1 µg/mL). Besides, the pIC50 in [2] was 7.00.

For the molecule `CCCC[C@H]1CN(c2cccc(Cl)c2)C(=O)CN1Cc1cncn1Cc1ccc(Cl)cc1`, the MIC with Cryptococcus neoformans [1] was 25 µM (≈ 11.8 µg/mL). Further, the negative logarithm of the IC50 (pIC50) in [2] is 5.80.

With `CCCC[C@H]1CN(c2cccc(Cl)c2)C(=O)CN1Cc1cncn1Cc1ccc(Br)cc1`, the MIC in the data set with Cryptococcus neoformans [1] was determined as 12 µM (≈ 6.19 µg/mL). The pIC50 in data set [2] is 5.96.

As to `CCCC[C@H]1CN(c2cccc(OC(F)(F)F)c2)C(=O)CN1Cc1cncn1Cc1ccc(Oc2ccccc2)c(C#N)c1`, the MIC in the data set with Cryptococcus neoformans [1] worked out at 50 µM (≈ 30.2 µg/mL). Besides, in [2], the pIC50 is 6.68.

Take `CCCC[C@H]1CN(c2cccc(OC(F)(F)F)c2)C(=O)CN1Cc1cncn1Cc1cccc(C#N)c1`: the MIC with Cryptococcus neoformans [1] was found to be 50 µM (≈ 25.6 µg/mL). Besides, the negative logarithm of the IC50 (pIC50) in data set [2] was 6.13.

Consider `CCCC[C@H]1CN(c2cccc(C)c2C)C(=O)CN1Cc1cncn1Cc1ccc(C#N)cc1`, for which the MIC in the data set with Cryptococcus neoformans [1] was determined as 50 µM (≈ 22.8 µg/mL). Moreover, in data set [2], the pIC50 was 5.66.

`CCCC[C@H]1CN(c2cccc(OC(F)(F)F)c2)C(=O)CN1Cc1cncn1Cc1ccc(Br)cc1`: the negative logarithm of the IC50 (pIC50) in [5] was 8.70; in data set [2], 6.72. Besides, the values for the K with Cryptococcus neoformans [3] and with Cryptococcus neoformans [4] were 500 nM and 750 nM, respectively. The MIC was 3 µM (≈ 1.7 µg/mL) with Cryptococcus neoformans [1], 1.5 µM (≈ 0.848 µg/mL) in [6] and 12.5 µM (≈ 7.07 µg/mL) with Cryptococcus neoformans [7]. Further, the MCC at 24 h in data set [8] worked out at 300 µM. Also, the outcome with Cryptococcus neoformans [9] was Active.

Consider `CCCC[C@H]1CN(c2cccc(OC(F)(F)F)c2)C(=O)CN1Cc1cncn1Cc1ccccc1`, for which the MIC in the data set on Cryptococcus neoformans [1] was 25 µM (≈ 12.2 µg/mL). Moreover, the pIC50 in data set [2] is 5.72.

As to `N#Cc1ccc(Cn2cncc2CN2CCN(c3cccc(OC(F)(F)F)c3)C(=O)C2)cc1F`, in the data set on Cryptococcus neoformans [1], the MIC turned out to be 50 µM (≈ 23.7 µg/mL). Besides, in [2], the pIC50 is 6.92.

Regarding `CCCCC[C@H]1CN(c2cccc(OC(F)(F)F)c2)C(=O)CN1Cc1cncn1Cc1ccc(Br)cc1`, the MIC with Cryptococcus neoformans [1] was 3 µM (≈ 1.74 µg/mL). In addition, the negative logarithm of the IC50 (pIC50) in data set [2] was 6.80.

With `N#Cc1cc(Cn2cncc2CN2CCN(c3cccc(OC(F)(F)F)c3)C(=O)C2)ccc1F`, the MIC in the data set on Cryptococcus neoformans [1] was 50 µM (≈ 23.7 µg/mL). For the same molecule, the pIC50 in data set [2] is 6.26.

In the case of `CCCC[C@H]1CN(c2cccc(OC(F)(F)F)c2)C(=O)CN1Cc1cncn1Cc1ccc(F)cc1`, the MIC in the data set on Cryptococcus neoformans [1] was 12 µM (≈ 6.05 µg/mL). Besides, in data set [2], the pIC50 was 6.15.

Regarding `N#Cc1ccc(Cn2cncc2CN2CCN(c3cccc(OC(F)(F)F)c3)C(=O)C2)cc1`, the MIC with Cryptococcus neoformans [1] came to 50 µM (≈ 22.8 µg/mL). Moreover, in [2], the negative logarithm of the IC50 (pIC50) is 5.57.

For `CCCC[C@H]1CN(c2cccc(OC(F)(F)F)c2)C(=O)CN1Cc1cncn1Cc1ccc(F)c(C#N)c1`, in the data set on Cryptococcus neoformans [1], the MIC is 50 µM (≈ 26.5 µg/mL). In addition, in [2], the negative logarithm of the IC50 (pIC50) was 6.74.

Regarding `CCCC[C@H]1CN(c2cccc(OC(F)(F)F)c2)C(=O)CN1Cc1cncn1Cc1ccc(C#N)cc1`, the MIC with Cryptococcus neoformans [1] came to 12 µM (≈ 6.14 µg/mL). For the same molecule, the negative-log IC50 (pIC50) in data set [2] is 6.47.

In the case of `N#Cc1ccc(Cn2cncc2CN2CCN(c3cccc(OC(F)(F)F)c3)C(=O)C2)cc1Oc1ccccc1`, the MIC with Cryptococcus neoformans [1] amounted to 50 µM (≈ 27.4 µg/mL). The pIC50 in data set [2] is 5.59.

The values are drawn from ChEMBL document CHEMBL5108066, “Structure-Guided Discovery of Potent Antifungals that Prevent Ras Signaling by Inhibiting Protein Farnesyltransferase” (J Med Chem, 2022).
